According to patent US10912752B2, “Methods and compositions for reducing ocular discomfort” (Brien Holden Vision Institute Limited, priority 2012, dated 2021):

Columns and labels:
[1] = tested on: caspase-3/7; test: Caspase-Glo luminescent caspase activity in HCLE under hyperosmotic stress; type: cell-based, human; conditions: 16 h
Protocol: (§1) Caspase-3/7, -8 and -9 activities were assayed using a luminescent assay kit (Promega, Madison, Wis.) according to the manufacturer's instructions. Briefly, 100 μL of Caspase-Glo-3/7, -8 and -9 reagents were added to HCLE at maintained on plastic at 2×10^4/cm^2, mixed and incubated for one hour at room temperature. Luminescence was measured using a SpectraFluor Plus microplate reader.
(§2) […] Induction of apoptosis was detected by quantification of the proteolytic activity of caspase-8, caspase-9, or caspase-3/7 using caspase activity assays, and production of tumor necrosis factor (TNF)-α, a known apoptosis inducer, using ELISA. Annexin V and Propidium iodine (PI) staining was performed to detect the percentage of apoptotic cells using confocal microscopy and flow cytometry.

[2] = tested on: caspase-9; test: as above; type: cell-based, human; conditions: 16 h
Protocol: as §1, §2

[3] = tested on: TNF-α; test: TNF-α production by HCLE cells in hyperosmolar medium (ELISA); type: cell-based, human; conditions: 10 mM, 500 mOsm, 16 h, vs hyperosmolar medium without osmolyte
Protocol: Enzyme-linked immunosorbent assay (ELISA) was used to quantify TNF-α. The culture supernatants were collected, centrifuged at 1500 rpm for 10 min to remove cellular debris and stored at −80° C. until processed. Assays were performed according to manufacturer's protocol (R&D Systems, Minneapolis, Minn.).
Cultured human corneal limbal epithelial (HCLE) cells were exposed to culture medium with or without carnitine (10 mM) at 300 mOsm (isotonic), 450 mOsm (moderate), and 500 mOsm (hyperosmotic) for 16 h. Induction of apoptosis was detected by quantification of the proteolytic activity of caspase-8, caspase-9, or caspase-3/7 using caspase activity assays, and production of tumor necrosis factor (TNF)-α, a known apoptosis inducer, using ELISA. Annexin V and Propidium iodine (PI) staining was performed to detect the percentage of apoptotic cells using confocal microscopy and flow cytometry.

[4] = tested on: ICES-induced murine dry eye model; test: Corneal fluorescein staining in ICES-induced murine dry eye model; type: in vivo, C57BL/6 mice; conditions: for corneal staining from Day 21 to Day 35: Schedule 2, within-group change
Description: A total of 110 female C57BL/6 mice (age 4-6 weeks, from the Animal Breeding Unit of Wenzhou Medical College) were used in the study. These mice were carefully selected out of 350 mice by clinical examination using slit-lamp microscopy and corneal staining. Only those healthy mice with no corneal infections, infiltration or leukom, and with total scores of corneal fluorescein staining of less than 10, were selected for the study.
This study used the ICES-induced murine dry eye model in which relative humidity, airflow and temperature were maintained at 15.7±3.2% (mean±SD), 2.1±0.2 m/s and 21-24° C., respectively, and mice began developing dry eye conditions similar to those in humans from Day 21 post-housing (Chen et al A Murine Model of Dry Eye Induced by an Intelligently Controlled Environmental System. Investigative Ophthalmology & Visual Science, 2008: 49(4):1386-1391). The relative humidity and temperature of ICES systems were monitored daily.
Mice in different groups were labelled using ear marks. The mice were housed in cages (maximum of five animals per cage) and two independent cages were placed in each ICES system. Two schedules were used for topical administration of test compounds, Betaine (0.234% (10 mM) in sterile PBS) or Carnitine (0.25% (10 mM) in sterile PBS), or sterile PBS as a control. Mice without any topical treatment were used as another control. In the first schedule, compounds were administered to mice at the beginning of their housing in ICES (Schedule 1) to study the effect of these compounds on the development of dry eye. In the second schedule compound administration began after mice had been housed in ICES for 21 days (Schedule 2), by which time the dry eye condition had been developed (Chen et al. IOVS 2008), to study the effect of these compounds on treatment of dry eye. Compounds were administered topically to both eyes of the animal. The compound solution made in PBS was topically administered four times daily for up to a total of 35 days for Schedule 1, or 14 days for Schedule 2, during which the mice remained housed in ICES.
Four (4×) mice in each cage received individual treatment: A, B, C, D where A=Betaine (10 mM in PBS); B=Carnitine (10 mM in PBS); C=PBS only; D=No treatment.
The cornea was examined using slit-lamp microscopy with cobalt blue light immediately after fluorescein instillation. The stained area was assessed and graded using the 2007 Dry Eye Work Shop (DEW) recommended grading system. The mouse corneas were rated ranging from 0 to 4 with the cornea surface divided into five regions (0 dot, Grade 0; 1-5 dots, Grade 1; 6-15 dots, Grade 2; 16-30 dots, Grade 3; and […], Grade 4). The total score from the five regions was recorded.

[5] = tested on: HCLE cells; test: MTT cell viability, titration of osmolyte concentration in isotonic medium; type: cell-based, human
Protocol: An immortalized human corneal limbal epithelial (HCLE) cell line (a kind gift from Ilene Gipson, Schepens Eye Research Institute, Boston, Mass.) was used in the study. HCLE cells were cultured as previously described (Garrett et al. Invest Ophthalmol Vis Sci 2008; 49:4844-4849). Briefly, the cells were maintained on plastic at 2×10^4/cm^2 in a keratinocyte serum-free medium (K-SFM; Invitrogen-Gibco, Grand Island, N.Y.), supplemented with 25 μg/mL bovine pituitary extract, 0.2 ng/mL epidermal growth factor (EGF; Invitrogen, Mount Waverley, VIC, Australia), and 0.4 mM CaCl2 and were grown at 37° C. in a 5% carbon dioxide atmosphere. To enhance nutrient composition, the cultures were switched at approximately 50% confluence to a 1:1 mixture of K-SFM and low calcium DMEM/F12 (Invitrogen), to achieve confluence. All the experiments involving the culture of HCLE cells were performed at 37° C. in a 5% carbon dioxide atmosphere unless otherwise indicated.
To determine the optimal concentration of betaine for use in the osmoprotective studies, betaine (Sigma-Aldrich, St. Louis, Mo.; 1.0-200 mM) was prepared in culture medium. […] Following treatment with betaine, cell viability was assessed using the 3-[4,5-dimethylthiazol-2-yl]-2,5-diphenyltetr azoliumbromide (MTT) cell survival assays (Promega, Madison, Wis.).

[6] = Schedule 1, Day 14, 10 mM in PBS topically four times daily
[7] = Schedule 1, Day 21, 10 mM in PBS topically four times daily

Compound | decreasing trend for caspase-3/7 activities ([1]; 10 mM, 500 mOsm) [%] | change in Caspase-3/7 activity (in words) ([1]; 10 mM, hypertonic medium) | reduction in cellular caspase-9 activities ([2]; 10 mM, 500 mOsm) [%] | change in Caspase-9 activity (in words) ([2]; 10 mM, hypertonic medium) | reduction in TNF-α levels [3] [%] | corneal staining vs control C (PBS only) or D (no treatment) [4, 6] | corneal staining vs control C (PBS only) or D (no treatment) [4, 7] | corneal staining vs control C or D ([4]; Schedule 1, Day 35, 10 mM in PBS topically four times daily) | corneal staining vs controls C or D ([4]; Schedule 2 (treatment from Day 22 after dry eye developed), Day 35) | corneal staining from Day 21 to Day 35 [4] | concentration optimal to carry out osmoprotective studies (cell viability analysis) ([5]; toxicity of various concentrations) [µM] | reduction of caspase-3/7 activity ([1]; 5 mM, 500 mOsm) | reduction of caspase-3/7 activity ([1]; 10 mM, 500 mOsm) | reduction of caspase-9 activity ([2]; 5 mM, 500 mOsm) | reduction of caspase-9 activity ([2]; 10 mM, 500 mOsm) | betaine concentration not toxic to the cells ([5]; titration 0-200 mM, 300 mOsm medium, 16 h, MTT)
C[N+](C)(C)CC(O)CC(=O)[O-] (centres unmarked) [carnitine, 3-hydroxy-4-(trimethylazaniumyl)butanoate] | 20 | significant lowering | 33 | significant lowering | 25 | statistically significant reduction | statistically significant reduction | reduced corneal staining | statistically significant reduction | statistically significant reduction | 10000 | – | – | – | – | –
C[N+](C)(C)CC(=O)[O-] [betaine, trimethylglycine] | – | – | – | – | 40 | statistically significant reduction | statistically significant reduction | – | – | statistically significant reduction | – | 2- to 3 fold | 4- to 5.2 fold | 2- to 3 fold | 4- to 5.2 fold | up to 40 mM
